Results: PubChem BioAssay AID1963983 (Molecular Pharmacology Branch, DTP, NCI, 2024)

Test system: 186277-243-T-J2-PDC multi-cell spheroid viability
Test: Anticancer human tumor 186277-243-T-J2-PDC patient-derived colon adenocarcinoma cell line growth inhibition [PI3K]
Conditions: for IC50: curve of first compound; for viability, T/C: stronger effect = lower value
Summary of the method: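 Tumor cells were combined with HUVEC and MSCs into spheroids, then dosed with PI3K-inhibitor combinations over half-log ranges capped near clinical Cmax or 10 microM.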
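Note: spheroids exposed to compounds for seven days before viability reading.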
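Throughout, for viability, T/C: 100% = DMSO vehicle control viability.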

IC50 (second compound 0.0316 µM): 117 nM | IC50 (second compound 0.1 µM): 66.7 nM | IC50 (second compound 0.316 µM): 34.1 nM | IC50 (second compound 1 µM): < 9.49 nM | IC50 (second compound 3.16 µM): < 9.49 nM | IC50 (second compound 10 µM): < 9.49 nM
SMILES: Cn1cnc2c(F)c(Nc3ccc(Br)cc3Cl)c(C(=O)NOCCO)cc21 + Cc1nc(NC(=O)N2CCCC2C(N)=O)sc1-c1ccnc(C(C)(C)C(F)(F)F)c1
viability, T/C (second compound 0.0316 µM, first compound 0.00949 µM): 107% | viability, T/C (second compound 0.0316 µM, first compound 0.03 µM): 80.3% | viability, T/C (second compound 0.0316 µM, first compound 0.0949 µM): 52.4% | viability, T/C (second compound 0.0316 µM, first compound 0.3 µM): 34.5% | viability, T/C (second compound 0.0316 µM, first compound 0.949 µM): 16.1% | viability, T/C (second compound 0.0316 µM, first compound 3 µM): 6.83% | viability, T/C (second compound 0.1 µM, first compound 0.00949 µM): 100% | viability, T/C (second compound 0.1 µM, first compound 0.03 µM): 67.8% | viability, T/C (second compound 0.1 µM, first compound 0.0949 µM): 42.1% | viability, T/C (second compound 0.1 µM, first compound 0.3 µM): 25.4% | viability, T/C (second compound 0.1 µM, first compound 0.949 µM): 13% | viability, T/C (second compound 0.1 µM, first compound 3 µM): 9.02% | viability, T/C (second compound 0.316 µM, first compound 0.00949 µM): 76.8% | viability, T/C (second compound 0.316 µM, first compound 0.03 µM): 53.5% | viability, T/C (second compound 0.316 µM, first compound 0.0949 µM): 28.9% | viability, T/C (second compound 0.316 µM, first compound 0.3 µM): 18.5% | viability, T/C (second compound 0.316 µM, first compound 0.949 µM): 8.47% | viability, T/C (second compound 0.316 µM, first compound 3 µM): 3.53% | viability, T/C (second compound 1 µM, first compound 0.00949 µM): 48.1% | viability, T/C (second compound 1 µM, first compound 0.03 µM): 28.6% | viability, T/C (second compound 1 µM, first compound 0.0949 µM): 16.6% | viability, T/C (second compound 1 µM, first compound 0.3 µM): 5.87% | viability, T/C (second compound 1 µM, first compound 0.949 µM): 4.04% | viability, T/C (second compound 1 µM, first compound 3 µM): 1.48% | viability, T/C (second compound 3.16 µM, first compound 0.00949 µM): 23% | viability, T/C (second compound 3.16 µM, first compound 0.03 µM): 10.6% | viability, T/C (second compound 3.16 µM, first compound 0.0949 µM): 5.72% | viability, T/C (second compound 3.16 µM, first compound 0.3 µM): 3.73% | viability, T/C (second compound 3.16 µM, first compound 0.949 µM): 2.72% | viability, T/C (second compound 3.16 µM, first compound 3 µM): 0.62% | viability, T/C (second compound 10 µM, first compound 0.00949 µM): 3.43% | viability, T/C (second compound 10 µM, first compound 0.03 µM): 3.24% | viability, T/C (second compound 10 µM, first compound 0.0949 µM): 1.7% | viability, T/C (second compound 10 µM, first compound 0.3 µM): 2.06% | viability, T/C (second compound 10 µM, first compound 0.949 µM): 1.21% | viability, T/C (second compound 10 µM, first compound 3 µM): 0.89%
